Patent US10258036B2, “Extract of Euodia suaveolens Scheff, repellent compositions and use thereof” (CHARABOT, priority 2009, dated 2019)

Legend:
mosquitoes = conditions: cited from earlier work
Aedes aegypti [1] = test: Repellent efficacy test on hairless mouse coated with test product, exposed to female mosquitoes; format: in vivo; conditions: concentration of 3% or even less of synthetic evodone
Experimental: In this respect, the invention is illustrated by the following efficacy tests, carried out in the laboratory, where the formulas are not degraded through the effects of abrasion, exudation, sunlight, temperature or even swimming in the sea. […] The tests are carried out on female Aedes aegypti mosquitoes aged 6 to 10 days having undergone a prior 24-hour period of fasting (no blood meal) in order to increase their aggressiveness. […] 30 minutes after product application, the mouse is introduced into a cage containing approximately 200 female mosquitoes (prior removal of the males using a food gradient). The test lasts 5 minutes and during this period the number of mosquitoes having landed on the mouse (“landing” effect: number of mosquitoes that land on the treated area and leave without biting) and the number of effective bites, are recorded. The test is stopped after 5 effective bites (“stop” in the Tables below). […] Based on the outcome of the first repetition, repetitions are performed at time intervals of 30 minutes in order to provide a more accurate limit for the duration of protection. During and between the runs, the mice are maintained in a “tropical” like atmosphere under controlled conditions at 27+/−1° C. and 70+/−5% relative humidity. The cages are changed upon each unit test and placed 3 meters apart. […]

[2] = in vivo; cited from earlier work
Aedes aegypti [3] = conditions: DEET at a dose of 23.8 percent, laboratory; cited from earlier work

CCC(C)OC(=O)N1CCCCC1CCO (centres unmarked) [icaridin, 1-methylpropylester]
concentration with efficacy comparable to that of 30% DEET (mosquitoes): 19.2%

Cc1coc2c1C(=O)C[C@@H](C)C2 [evodone, (6S)3-6 dimethyl 6,7 dihydro 5H benzofuran-4-one]
repellent efficacy compared with DEET (Aedes aegypti [1]): as effective as a concentration of 30% of DEET

p menthane 3.8 diol [citriodiol]
maximum persistence of protection (mosquitoes): ≤ 6 h

CCN(CC)C(=O)c1cccc(C)c1 [DEET, N,N-diethyl-3-methylbenzamide]
share of a dose absorbed through the skin [2]: 30%
protection period (Aedes aegypti [3]): more than 5 hours
